Among the data in patent US9238039B2, “Pyrazolo[1,5-A]pyrimidines for antiviral treatment” (Gilead Sciences, Inc., priority 2010, dated 2016) are inhibition and EC50 values, retold here.

This experiment relates to RSV strain A2. Put plainly: RSV antiviral cytoprotection assay in Hep2 cells (96-well and 384-well format, Cell TiterGlo read-out). Type of experiment: cell-based, Respiratory Syncytial Virus (RSV). The note with it: human respiratory syncytial virus; for inhibition at 0.5 µM: HEp-2, 0.5 uM; for EC50: HEp-2, RSV-induced cytopathic effects, Hep2 cells, class symbols. (In ATP-based viability assays light output follows the ATP content of the culture.)

Where [1] appears, read: RSV-induced cytopathic effect in Hep2 cells, calculated from fitted dose response curve, normalized to 0% and 100%.

As usually defined, the inhibition is the change of the read-out against control, counted positive when it falls. Usually EC50 stands for the concentration at which the effect is half-maximal. `Cc1[nH]c2cc([C@@H]3CCCCN3C(=O)c3ccccc3NS(=O)(=O)N3CCOCC3)nn2c(=O)c1C` [Compound 15]: the EC50 fell in the range of 101 to 1000 nM. Besides, the inhibition at 0.5 µM under setting [1] is 30%. In addition, the inhibition at 1 µM (HEp-2, 1 uM, RSV-induced cytopathic effect in Hep2 cells, calculated from fitted dose response curve, normalized to 0% and 100%) was 42%.

On to `CN1CCN(c2cc(N3CCC3)nc3cc([C@@H]4CCCCN4C(=O)c4cc(Cl)ccc4NS(C)(=O)=O)nn23)CC1` [Compound 165], for which the EC50 is 0.1 to 100 nM. For the same compound, the inhibition at 0.5 µM under setting [1] was 100%.

Regarding `COc1cccc(C(=O)N2CCCC[C@H]2c2cc3nc(N4CC[C@H](N)C4)c(C)cn3n2)c1Cl` [Compound 377], the half-maximal effective concentration (EC50) was in the range of 0.1 to 100 nM. In addition, the inhibition at 0.5 µM under setting [1] is 99%.

On to `Cc1cn2nc([C@@H]3CC[C@H](C)CN3C(=O)c3cc(Cl)ccc3NS(C)(=O)=O)cc2nc1N1CCC1` [Compound 138], for which the EC50 lay in the range of 0.1 to 100 nM. Besides, under setting [1], the inhibition at 0.5 µM was 100%.

`Cc1cn2nc([C@@H]3CCCCN3C(=O)c3cc(Cl)ccc3NS(C)(=O)=O)cc2nc1N1CC(Oc2ccccn2)C1` [Compound 212]: the EC50 fell in the range of 101 to 1000 nM. Moreover, the inhibition at 0.5 µM under setting [1] is 88%.

With `Cc1ccc(NS(C)(=O)=O)c(C(=O)N2CCC(C)CC2c2cc3[nH]c(C)c(C)c(=O)n3n2)c1` (stereo not shown) [Compound 89], the 50% effective concentration (EC50) fell in the range of 0.1 to 100 nM. Under setting [1], the inhibition at 0.5 µM was 100%.

Regarding `Cc1cn2nc([C@@H]3CCCCN3C(=O)c3cc(Cl)ccc3NS(C)(=O)=O)cc2nc1N1CCC[C@H]1CN1CCCC1` [Compound 206], the 50% effective concentration (EC50) was 0.1 to 100 nM. Under setting [1], the inhibition at 0.5 µM is 99%.

In the case of `Cc1cc(N2CC(O)C2)nc2cc([C@@H]3CCCCN3C(=O)c3cc(Cl)ccc3NS(C)(=O)=O)nn12` [Compound 40], the EC50 lay in the range of 0.1 to 100 nM. Further, under setting [1], the inhibition at 0.5 µM was 100%.

Take `Cc1nc(C(=O)N2CCCC[C@H]2c2cc3nc(N4CC[C@H](N)C4)c(C)cn3n2)cs1` [Compound 288]: the EC50 was 0.1 to 100 nM. Moreover, the inhibition at 0.5 µM under setting [1] was 100%.

In the case of `CS(=O)(=O)Nc1ccc(Cl)cc1C(=O)N1CCCC[C@H]1c1cc2nc(N3CC(N)C3)cc(N3CC(N)C3)n2n1` [Compound 131], the EC50 was 0.1 to 100 nM. For the same compound, the inhibition at 0.5 µM under setting [1] was 100%.

Regarding `Cc1cn2nc([C@@H]3CCCCN3C(=O)c3ccc4c(c3)OCCO4)cc2nc1N1CC[C@H](N)C1` [Compound 364], the EC50 lay in the range of 0.1 to 100 nM. In addition, the inhibition at 0.5 µM under setting [1] was 99%.

Take `Cc1cn2nc([C@@H]3CCCCN3C(=O)c3ccc(Cl)c(Cl)c3)cc2nc1N1CC[C@H](N)C1` [Compound 392]: the EC50 is 0.1 to 100 nM. Moreover, the inhibition at 0.5 µM under setting [1] was 95%.

Turning to `Cc1cn2nc([C@@H]3CCCCN3C(=O)c3cc(Cl)ccc3NS(C)(=O)=O)cc2nc1N1CC[C@@H](CO)C1` [Compound 198], the EC50 fell in the range of 0.1 to 100 nM. Besides, the inhibition at 0.5 µM under setting [1] was 95%.

With `Cc1ccc(NS(C)(=O)=O)c(C(=O)N2Cc3ccccc3C[C@H]2c2cc3nc(C)c(C)cn3n2)c1` [Compound 35], the EC50 is 0.1 to 100 nM. Besides, the inhibition at 0.5 µM under setting [1] is 96%.

In the case of `CS(=O)(=O)Nc1ccc(Cl)cc1C(=O)N1CCCC[C@H]1c1cc2nc(N3CC(O)C3)cc(N3CCN(CC(F)(F)F)CC3)n2n1` [Compound 83], the 50% effective concentration (EC50) fell in the range of 0.1 to 100 nM. In addition, under setting [1], the inhibition at 0.5 µM was 98%.

On to `CCCn1nccc1C(=O)N1CCCC[C@H]1c1cc2nc(N3CC[C@H](N)C3)c(C)cn2n1` [Compound 300], for which the EC50 fell in the range of 0.1 to 100 nM. Moreover, the inhibition at 0.5 µM under setting [1] is 99%.

Regarding `Cc1cn2nc([C@@H]3CCCCN3C(=O)c3onc(C)c3C)cc2nc1N1CC[C@H](N)C1` [Compound 283], the 50% effective concentration (EC50) is 0.1 to 100 nM. In addition, the inhibition at 0.5 µM under setting [1] is 99.8%.

For the compound `Cc1cn2nc([C@@H]3CCCCN3C(=O)c3cc(F)ccc3Cl)cc2nc1N1CC[C@H](N)C1` [Compound 347], the EC50 lay within 0.1 to 100 nM. The inhibition at 0.5 µM under setting [1] is 100%.

Regarding `Cc1ccc(Cl)cc1C(=O)N1CCCC[C@H]1c1cc2nc(N3CC[C@H](N)C3)c(C)cn2n1` [Compound 335], the EC50 lay within 0.1 to 100 nM. Also, the inhibition at 0.5 µM under setting [1] was 99%.

With `Cc1cn2nc([C@@H]3CCCCN3C(=O)c3ccsc3)cc2nc1N1CC[C@H](N)C1` [Compound 267], the EC50 fell in the range of 0.1 to 100 nM. The inhibition at 0.5 µM under setting [1] is 99%.

`CS(=O)(=O)Nc1ccc(Br)cc1C(=O)N1CCCC[C@H]1c1cc2nc(N3CCC3)cc(N3CCOCC3)n2n1` [Compound 79]: the EC50 lay within 0.1 to 100 nM. The inhibition at 0.5 µM under setting [1] was 100%.

As to `Cc1cn2nc([C@@H]3CCCCN3C(=O)c3nonc3NCCO)cc2nc1N1CC[C@H](N)C1` [Compound 342], the EC50 was 101 to 1000 nM. In addition, under setting [1], the inhibition at 0.5 µM is 79%.

On to `COc1ccc(C(=O)N2CCCC[C@H]2c2cc3nc(N4CC[C@H](N)C4)c(C)cn3n2)cc1Cl` [Compound 375], for which the EC50 was 0.1 to 100 nM. Also, the inhibition at 0.5 µM under setting [1] was 99%.

Regarding `Cc1ccc(NS(C)(=O)=O)c(C(=O)N2CCCC[C@H]2c2cc3nc(N4CCC4)cc(N4CCOCC4)n3n2)c1` [Compound 194], the EC50 was in the range of 0.1 to 100 nM. The inhibition at 0.5 µM under setting [1] is 100%.

As for `CC(=O)Nc1c(Cl)ccc(Cl)c1C(=O)N1CCCC[C@H]1c1cc2[nH]c(C)c(C)c(=O)n2n1` [Compound 245], the EC50 lay in the range of 0.1 to 100 nM. The inhibition at 0.5 µM under setting [1] was 92%.

On to `Cc1ccc(NS(C)(=O)=O)c(C(=O)N2CCCC[C@H]2c2cc3nc(C4CC4)cc(N4CCC4)n3n2)c1` [Compound 65], for which the EC50 was 0.1 to 100 nM. Also, under setting [1], the inhibition at 0.5 µM was 100%.

For the compound `Cc1cn2nc([C@@H]3CCCCN3C(=O)c3c(F)ccc(F)c3F)cc2nc1N1CC[C@H](N)C1` [Compound 353], the EC50 lay within 0.1 to 100 nM. Further, the inhibition at 0.5 µM under setting [1] is 100%.

For `CS(=O)(=O)Nc1ccc(Cl)cc1C(=O)N1CCCC[C@H]1c1cc2nc(N3CCC3)cc(N3CCN(CCF)CC3)n2n1` [Compound 166], the EC50 lay within 0.1 to 100 nM. Also, the inhibition at 0.5 µM under setting [1] is 100%.

Consider `Cc1cn2nc([C@@H]3CCCCN3C(=O)c3cc(Cl)ccc3NS(C)(=O)=O)cc2nc1NCCNCCO` [Compound 235], for which the EC50 fell in the range of 0.1 to 100 nM. The inhibition at 0.5 µM under setting [1] is 99%.

As to `Cc1cn2nc([C@@H]3CCCCN3C(=O)c3cccc(OC(C)C)c3)cc2nc1N1CC[C@H](N)C1` [Compound 365], the EC50 was in the range of 0.1 to 100 nM. Besides, the inhibition at 0.5 µM under setting [1] is 100%.

Regarding `CS(=O)(=O)Nc1ccc(Cl)cc1C(=O)N1CCCC[C@H]1c1cc2nc(N3CCC3)cc(N3CCCN3)n2n1` [Compound 145], the EC50 was 0.1 to 100 nM. Moreover, under setting [1], the inhibition at 0.5 µM was 99%.

`Cc1cc(C)cc(C(=O)N2CCCC[C@H]2c2cc3nc(N4CC[C@H](N)C4)c(C)cn3n2)c1` [Compound 160]: the EC50 lay in the range of 0.1 to 100 nM. Also, the inhibition at 0.5 µM under setting [1] is 100%.

Turning to `Cc1cn2nc([C@@H]3CCCCN3C(=O)c3cc(Cl)ccc3NS(C)(=O)=O)cc2nc1N1CC[C@@H](C)C1` [Compound 204], the EC50 lay in the range of 0.1 to 100 nM. For the same compound, the inhibition at 0.5 µM under setting [1] was 98%.

Take `Cc1cccc(NS(C)(=O)=O)c1C(=O)N1CCCC[C@H]1c1cc2[nH]c(C)c(C)c(=O)n2n1` [Compound 32]: the EC50 was 0.1 to 100 nM. Besides, the inhibition at 0.5 µM under setting [1] was 99%.

Turning to `Cc1ccc(NS(C)(=O)=O)c(C(=O)N2CCCC[C@H]2c2cc3nc(C)c(C)c(NC4CC4)n3n2)c1` [Compound 102], the concentration for a half-maximal effect (EC50) was in the range of 0.1 to 100 nM. The inhibition at 0.5 µM under setting [1] was 98%.

Take `Cc1cn2nc([C@@H]3CCCCN3C(=O)c3ccc4ncsc4c3)cc2nc1N1CC[C@H](N)C1` [Compound 361]: the EC50 is 0.1 to 100 nM. Moreover, the inhibition at 0.5 µM under setting [1] is 88%.

Consider `Cc1cn2nc([C@@H]3CCCCN3C(=O)c3cccnc3N)cc2nc1N1CC[C@H](N)C1` [Compound 275], for which the EC50 was 0.1 to 100 nM. Under setting [1], the inhibition at 0.5 µM was 100%.

On to `Cc1cn2nc([C@@H]3CCCCN3C(=O)c3nn(C)c4ccccc34)cc2nc1N1CC[C@H](N)C1` [Compound 357], for which the EC50 was 101 to 1000 nM. The inhibition at 0.5 µM under setting [1] was 82%.

Take `Cc1cc(N2CC(N)C2)nc2cc([C@@H]3CCCCN3C(=O)c3cc(Cl)ccc3NS(C)(=O)=O)nn12` [Compound 52]: the EC50 is 0.1 to 100 nM. Moreover, the inhibition at 0.5 µM under setting [1] is 100%.

Turning to `Cc1cc(NS(C)(=O)=O)c(C(=O)N2CCCC[C@H]2c2cc3nc(C4CC4)cc(C)n3n2)s1` [Compound 111], the EC50 lay in the range of 0.1 to 100 nM. The inhibition at 0.5 µM under setting [1] is 95%.

Take `C[C@H]1CN(c2cc(N3CCC3)nc3cc([C@@H]4CCCCN4C(=O)c4cc(Cl)ccc4NS(C)(=O)=O)nn23)CCN1` [Compound 155]: the EC50 lay within 0.1 to 100 nM. For the same compound, under setting [1], the inhibition at 0.5 µM was 100%.

As for `Cc1cn2nc([C@@H]3CCCCN3C(=O)c3ccc(-c4cccnc4)cc3)cc2nc1N1CC[C@H](N)C1` [Compound 408], the EC50 was 101 to 1000 nM. Also, the inhibition at 0.5 µM under setting [1] was 59%.

`Cc1cn2nc([C@@H]3CCCCN3C(=O)c3cn(C)nc3C(F)(F)F)cc2nc1N1CC[C@H](N)C1` [Compound 402]: the EC50 is 0.1 to 100 nM. For the same compound, under setting [1], the inhibition at 0.5 µM is 99%.

For `CCn1nc(C)cc1C(=O)N1CCCC[C@H]1c1cc2nc(N3CC[C@H](N)C3)c(C)cn2n1` [Compound 302], the EC50 is 0.1 to 100 nM. Besides, the inhibition at 0.5 µM under setting [1] is 100%.

`Cc1cc(N2CCC2)nc2cc([C@@H]3CCCCN3C(=O)c3cc(Cl)ccc3NS(C)(=O)=O)nn12` [Compound 42]: the EC50 fell in the range of 0.1 to 100 nM. In addition, the inhibition at 0.5 µM under setting [1] is 100%.

In the case of `Cc1cn2nc([C@@H]3CCCCN3C(=O)c3n[nH]c4c3CCC4)cc2nc1N1CC[C@H](N)C1` [Compound 296], the EC50 was 101 to 1000 nM. Besides, under setting [1], the inhibition at 0.5 µM is 49%.

For `CCC(=O)Nc1nonc1C(=O)N1CCCC[C@H]1c1cc2nc(N3CC[C@H](N)C3)c(C)cn2n1` [Compound 372], the EC50 was 101 to 1000 nM. For the same compound, the inhibition at 0.5 µM under setting [1] is 38%.

On to `C[C@@H]1CN(c2cc(N3CCC3)nc3cc([C@@H]4CCCCN4C(=O)c4cc(Cl)ccc4NS(C)(=O)=O)nn23)C[C@H](C)N1` [Compound 163], for which the EC50 was 0.1 to 100 nM. In addition, the inhibition at 0.5 µM under setting [1] is 100%.
